Paper PMC6199744, “Development of Chemical Proteomics for the Folateome and Analysis of the Kinetoplastid Folateome” (ACS Infectious Diseases, 2018)
Several values for one entry are separate records, joined by “and”; a condition that tells them apart may be missing. Equal entries are not always repeated. Where two headings read alike, the source gives them in different places.

Tested on: L. major lysate proteins
Assay: Multitargeted bead mixture chemoproteomics, single concentration competition, proteome-wide
Type: binding
Details: for fold change: vehicle control = 1

Structure (SMILES): NCCOCCOCC(=O)Nc1nc2ncc(CNc3ccc(C(=O)NC(CCC(=O)O)C(=O)O)cc3)nc2c(=O)[nH]1 (stereo not drawn) [compound 6]
- fold change vs vehicle control: 1.04 and 1.02
- protein inhibition, any captured protein (Figure 8) (bead mixture, L. major lysate): no protein inhibition >30%
- fold change vs vehicle control (protein CLI00016468.1 KINETOPLASTID MEMBRANE PROTEIN-11): 0.79
- fold change vs vehicle control (protein LINJ.03.0240 RIBOSOMAL PROTEIN L38, PUTATIVE): 1.35
- fold change vs vehicle control (protein LINJ.11.0780 40S RIBOSOMAL PROTEIN S21, PUTATIVE): 1.03
- fold change (protein LINJ.11.0960 40S RIBOSOMAL PROTEIN S5): 1.03
- fold change vs vehicle control (protein LINJ.13.0990 PROTEASOME REGULATORY ATPASE SUBUNIT 2, PUTATIVE): 0.92
- fold change vs vehicle control (protein LINJ.15.0330 RIBONUCLEOPROTEIN P18, MITOCHONDRIAL PRECURSOR, PUTATIVE): 0.98
- fold change (protein LINJ.19.0090 FIBRILLARIN, PUTATIVE): 0.87
- fold change relative to vehicle control (protein LINJ.23.0860, 3-KETOACYL-COA THIOLASE, PUTATIVE): 1.25
- fold change relative to vehicle control (protein LINJ.24.2300, 60S RIBOSOMAL PROTEIN L12, PUTATIVE): 1
- fold change vs vehicle control (protein LINJ.25.2230 SUCCINYL-COA […] SUBUNIT, PUTATIVE): 1.06
- fold change vs vehicle control (protein LINJ.26.1630 40S RIBOSOMAL PROTEIN S33, PUTATIVE): 1.13
- fold change vs vehicle control (protein LINJ.28.1100 RIBOSOMAL PROTEIN S20, PUTATIVE): 0.92
- fold change relative to vehicle control (protein LINJ.28.1940, REPLICATION FACTOR A, 51KDA SUBUNIT, PUTATIVE): 0.96
- fold change (protein LINJ.28.2280 DYNEIN LIGHT CHAIN LC6, FLAGELLAR OUTER ARM, PUTATIVE): 0.7
- fold change (protein LINJ.28.2870 PROTEIN PHOSPHATASE 4 CATALYTIC SUBUNIT, PUTATIVE): 0.82
- fold change relative to vehicle control (protein LINJ.31.1600, […] OXIDASE VIII (COX VIII), PUTATIVE): 0.8
- fold change relative to vehicle control (protein LINJ.33.1730, CYCLOPHILIN 4, PUTATIVE): 1.42
- fold change vs vehicle control (protein LINJ.34.0670 […]-ATP-ASE SUBUNIT 11, PUTATIVE,19S […]): 1.08
- fold change vs vehicle control (protein LINJ.36.0780 PROTEIN KINASE, PUTATIVE,MITOGEN-ACTIVATED PROTEIN KINASE, PUTATIVE): 1.16
- fold change relative to vehicle control (protein LINJ.36.3960, BASIC TRA[…] 3A, PUTATIVE): 1.37
- fold change vs vehicle control (protein LINJ.36.4070 EUKARYOTIC TRANSLATION INITIATION FACTOR 3 SUBUNIT, PUTATIVE): 0.98
- fold change relative to vehicle control (protein LINJ.36.4080, HY[…], CONSERVED): 1.12
- fold change (protein LINJ.36.4180 HS1VU COMPLEX P[…]-LIKE): 1.02
- fold change vs vehicle control (protein LINJ.[…] LONG-CHAIN-FATTY-ACID-COA LIGASE, PUTATIVE): 0.98
- fold change (protein LMJF.01.0570 TRIC[…], PUTATIVE): 0.96
- fold change relative to vehicle control (protein LMJF.03.0200, DELTA-1-PYRROLINE-5-CARBOXYLATE DEHYDROGENASE, PUTATIVE): 1.14
- fold change (protein LMJF.03.0230 LONG CHAIN FATTY ACYL COA SYNTHETASE, PUTATIVE): 1
- fold change (protein LMJF.03.0980 ELONGATION INITIATION FACTOR 2 ALPHA SUBUNIT, PUTATIVE): 0.99
- fold change vs vehicle control (protein LMJF.04.0630 HY[…], CONSERVED): 1.04
- fold change vs vehicle control (protein LMJF.04.1230 actin): 1.07
- fold change (protein LMJF.05.0100 PHOSPHOPROTEIN PHOSPHATASE, PUTATIVE): 0.99
- fold change (protein LMJF.05.0280 PROTEIN TYROSINE PHOSPHATASE, PUTATIVE): 0.92
- fold change (protein LMJF.05.0510 ATPASE ALPHA SUBUNIT): 1.08
- fold change (protein LMJF.05.1040 STOMATIN-LIKE PROTEIN): 0.97
- fold change (protein LMJF.06.0650 LANOSTEROL SYNTHASE, PUTATIVE): 0.97
- fold change vs vehicle control (protein LMJF.07.0700 TOPOISOMERASE-RELATED FUNCTION PROTEIN-LIKE PROTEIN): 0.83
- fold change (protein LMJF.07.1000 RNA BINDING PROTEIN-LIKE PROTEIN): 0.9
- fold change relative to vehicle control (protein LMJF.07.1140, PEPTIDE […] REDUCTASE-LIKE): 1.14
- fold change (protein LMJF.08.0510 RIBOSE-PHOSPHATE PYROPHOSPHOKINASE, PUTATIVE): 0.97
- fold change vs vehicle control (protein LMJF.08.0550 T[…]-LIKE PROTEIN): 1.05
- fold change relative to vehicle control (protein LMJF.08.1030, cathepsin L-like protease): 0.94
- fold change vs vehicle control (protein LMJF.08.1100 HY[…], CONSERVED): 1.01
- fold change vs vehicle control (protein LMJF.09.1010 HYPOTHETICAL PROTEIN, CONSERVED): 0.88
- fold change relative to vehicle control (protein LMJF.09.1120, MIT[…] BINDING PROTEIN 2,MRP2, GBP25): 1.13
- fold change vs vehicle control (protein LMJF.09.1260 HYPOTHETICAL PROTEIN, CONSERVED): 0.98
- fold change (protein LMJF.10.0210 NUCLEOLAR PROTEIN, PUTATIVE): 1.03
- fold change vs vehicle control (protein LMJF.10.0310 PROTEIN TRANSPORT PROTEIN SEC23, PUTATIVE): 0.91
- fold change (protein LMJF.11.0590 3-[…]-COA C[…] SUBUNIT, PUTATIVE): 0.92
- fold change relative to vehicle control (protein LMJF.11.0630, AMINOPEPTIDASE, PUTATIVE,METALLO-PEPTIDASE, CLAN MF, FAMILY M17): 1.13
- fold change vs vehicle control (protein LMJF.11.1050 PRETRA[…], ALPHA SUBUNIT, PUTATIVE,SEC61-LIKE (PRETRA[…]) PROTEIN, PUTATIVE): 1.04
- fold change (protein LMJF.11.1160 PROTEIN TRANSPORT PROTEIN SEC31, PUTATIVE): 0.87
- fold change (protein LMJF.12.0030 PROTEASOME BETA-1 SUBUNIT, PUTATIVE): 0.9
- fold change vs vehicle control (protein LMJF.12.0210 […] […]1L8 3, PUTATIVE): 0.98
- fold change relative to vehicle control (protein LMJF.12.0530, GLUCOSE-6-PHOSPHATE ISOMERASE): 1.41
- fold change (protein LMJF.12.0630 ALANINE AMINOTRANSFERASE): 0.95
- fold change vs vehicle control (protein LMJF.13.1230 40S RIBOSOMAL PROTEIN S4, PUTATIVE): 1.22
- fold change vs vehicle control (protein LMJF.14.0310 PROTEASOME ALPHA 3 SUBUNIT, PUTATIVE): 0.96
- fold change (protein LMJF.14.0660 FATTY ACID ELONGASE, PUTATIVE): 1.14
- fold change (protein LMJF.14.0670 FATTY ACID ELONGASE, PUTATIVE): 0.98
- fold change vs vehicle control (protein LMJF.14.0680 FATTY ACID ELONGASE, PUTATIVE): 1.13
- fold change (protein LMJF.14.0990 ADP/ATP MIT[…]-LIKE PROTEIN): 1.32
- fold change vs vehicle control (protein LMJF.14.1160 ENOLASE): 1.1
- fold change (protein LMJF.14.1440 HYPOTHETICAL PROTEIN, CONSERVED (cytoskeleton associated protein, putative)): 0.82
- fold change (protein LMJF.15.0040 HYPOTHETICAL PROTEIN, CONSERVED (Possible lysine decarboxylase, putative)): 0.84
